SMILES strings stand for the structures.

One compound from patent US12090147B2, “Combination therapy with 2-(4-chlorophenyl)-N-((2-(2,6-dioxopiperidin-3-yl)-1-oxoisoindolin-5-yl)methyl)-2,2-difluoroacetamide” (Celgene Corporation, priority 2019, dated 2024) can be followed below.

The subject of one series is ML-2. The experiment in a line: Cell viability (CELL TITER-GLO), Compound 1 IC50 / dose response. The settings on record: Homo sapiens; ML-2 (monocytic, FAB M4). It is filed as cell-based. As to the method:
(§1) For CELL TITER-GLO® (CTG; Promega) and Incucyte assays, cells were seeded at 0.1 million per mL, 50 μL per well of Corning black 384-well plate and allowed set overnight. The next day, test compounds were dispensed using a Tecan D300e digital dispenser according to manufacturer's instruction.
Human AML cell lines, HL-60 (CCL-240), KG-1 (CCL-246), ML-2 (ACC-15), MOLM-13 (ACC-554), MV-4-11 (CRL-9591), NOMO-1 (ACC-542), TF-1 (CRL-2003), THP-1 (TIB-202), and U937 (CRL-1593) were obtained from American Type Culture Collection (ATCC; Manassas, VA) or Deutsche Sammlung von Mikroorganismen and Zellkulturen (DSMZ, Germany) cell banks. […]
(§2) AML cell lines and primary AML were treated in duplicate or triplicates with DMSO or test compounds in 384-well plates for 3 days. Cell viability was determined by CELL TITER-GLO® (CTG; Promega) assay kit according to manufacturer's instructions. Apoptosis was monitored using Caspase 3/7 Green reagent (Essen Biosciences Cat No. 4440). Caspase-3/7 activation levels were quantified using the IncuCyte™ ZOOM basic analyzer.
(§3) Cell proliferation (CTG) and caspase 3/7 activation (IncuCyte) were analyzed using GraphPad Prism. Electrochemiluminescence data was analyzed using MSD Discovery Workbench platform.
(In general: Cellular ATP, detected with luciferase, serves as a proxy for viable cell number.)

A further series deals with KG-1. The experiment in a line: Cell viability (CELL TITER-GLO), Compound 1 IC50. Type of series: cell-based. The settings on record: Homo sapiens; KG-1 (myeloblast, FAB M0). As to the method:
as §1
(§4) Human AML cell lines, HL-60 (CCL-240), KG-1 (CCL-246), ML-2 (ACC-15), MOLM-13 (ACC-554), MV-4-11 (CRL-9591), NOMO-1 (ACC-542), TF-1 (CRL-2003), THP-1 (TIB-202), and U937 (CRL-1593) were obtained from American Type Culture Collection (ATCC; Manassas, VA) or Deutsche Sammlung von Mikroorganismen and Zellkulturen (DSMZ, Germany) cell banks. Acute myeloid leukemia cell lines were maintained in RPMI-1640 (ATCC Cat No. 30-2001) containing 20% fetal bovine serum (FBS) (Corning Cat No. 35-010-CV) and maintained in humidified incubators at 5% carbon dioxide.
as §2, §3

Another series concerns MOLM-13. The series is described as follows: Cell viability (CELL TITER-GLO), Compound 1 IC50. The settings on record: Homo sapiens; MOLM-13 (monocytic, FAB M5a). Type of series: cell-based. On the procedure: as §1, §4, §2, §3
In a further series the test system is MV4-11. The series is described as follows: Cell viability (CELL TITER-GLO), Compound 1 IC50. It is filed as cell-based. The settings on record: Homo sapiens; MV4-11 (acute myeloid leukemia, FAB M5). On the procedure: as §1, §4, §2, §3
The next series relates to NOMO-1. The experiment in a line: Cell viability (CELL TITER-GLO), Compound 1 IC50. It is filed as cell-based. To be noted: Homo sapiens; NOMO-1 (macrophage, FAB M5a). As to the method:
as §1, §4, §2, §3

A further series has as its system TF-1. The series is described as follows: Cell viability (CELL TITER-GLO), Compound 1 IC50. Type of series: cell-based. The settings on record: Homo sapiens; TF-1 (erythroblast, FAB M6). As to the method: as §1, §4, §2, §3
Series [1] relates to bone marrow mononuclear cells (BMMC) from primary AML patients. The experiment in a line: Secreted IL-1β in primary bone marrow mononuclear cells ex vivo. It is filed as cell-based, human. On the procedure:
For cytokine assays on primary AML and healthy bone marrow cells, cells were seeded at 0.2 million in 150 μL media per well of ultra-low attachment 96-well plate in duplicates. Cell culture media was collected 24 and 48 hours post-treatment with Compound 1 and/or LPS. Cells were pelleted, fixed in 1.6% PFA and froze down for flow cytometry analysis.
Normal PBMCs were purchased from AllCells (Cat No. PB006F). Primary AML BMMC in were purchased from Conversant (SKU ID: BBM1000-E1110036458110215SH) or Fidelis Research (AML55, AML57, AML73, AML74, AML76, AML79, AML80, AML81, AML84, AML95). Bone marrow from health donor was purchased from StemCell Technologies (Cat No. 70001.2).
Normal PBMCs were cultured in RPMI-1640 (ATCC Cat No. 30-2001) containing 20% fetal bovine serum (Corning Cat No. 35-010-CV). […]
IL-1α (Meso Scale Disgnostics, Cat No. K151RBD), IL-1β (Meso Scale Disgnostics, Cat No. K151QPD), IL-1RA (Meso Scale Disgnostics, Cat No. K151WTD), IL-18 (Meso Scale Disgnostics, Cat No. K151VJK), TNFa (Meso Scale Disgnostics, Cat No. K151QWD), VEGF Meso Scale Disgnostics, Cat No. K151RHD) levels were measured by (Meso Scale Disgnostics assay kits following manufacturer's instructions. Measurements were made on a MESO™ SECTOR S 600 plate reader (Meso Scale Disgnostics). […]

Series [2] concerns ML-2 parental, caspase 1 and caspase 8 knock out cells. The series is described as follows: IL-1β in CRISPR/Cas9 caspase 1 or caspase 8 knock out cells (lysate and supernatant). To be noted: 1 μM Compound 1. Type of series: cell-based, human. On the procedure:
To further confirm if caspase 8 is necessary for Compound 1 induced IL-1β upregulation and/or release, knock out studies were performed. Caspase 1 or caspase 8 was knocked out by CRISPR/Cas9 in ML-2 cells, and the effect of Compound 1 on intracellular and secreted IL-1β levels was investigated. Parental, caspase 1 and caspase 8 knock out cells were treated with or without 1 μM Compound 1. IL-1β levels were analyzed 48 and 72 hours post-compound treatment in cell lysate and culture supernatant.

Another series can be described thus: physchem. The settings on record: aqueous buffer.

For orientation: IC50 means the midpoint of a concentration-inhibition curve. A lower IC50 goes with inhibition by little substance. By solubility is commonly meant how much of the substance goes into solution per volume. Turning to `O=C1CCC(N2Cc3cc(CNC(=O)C(F)(F)c4ccc(Cl)cc4)ccc3C2=O)C(=O)N1` (stereo not drawn) [Compound 1, 2-(4-chlorophenyl)-N-((2-(2,6-dioxopiperidin-3-yl)-1-oxoisoindolin-5-yl)methyl)-2,2-difluoroacetamide], the 50% inhibitory concentration (IC50) in the series on ML-2 was 15.1 nM; in the series with KG-1 it was 8.9 nM; with MOLM-13, 76.2 nM; in the series on MV4-11 it was 17.3 nM; in the series on NOMO-1, 57.8 nM; with TF-1, 105 nM. The “IL-1β in cell culture supernatant, FAB M0/M1/M2 AML BMMC” value in series [1] (four M0/M1/M2 samples) is “not able to induce IL-1β”. The “IL-1β in cell culture supernatant, FAB M4/M5 AML BMMC” value in [1] (two out of five M4/M5 samples, 24 and 48 hours post treatment) was “marked induction of IL-1β”. Besides, the “Induction of IL-1β release” value in series [2] (caspase 8 knock out ML-2 cells) is given as “compromised”. Moreover, in [2] (caspase 8 knock out ML-2 cells), the Pro-IL-1β upregulation entry is recorded as “remains intact”. The “Pro-IL-1β upregulation and secreted IL-1β” value in [2] (parental and caspase 1 knock out ML-2 cells, 48 and 72 hours) was “Upregulation of pro-IL-13 and increased secreted IL-1β were evident”. This compound also displayed a solubility in “physchem” not above 1 µg/mL.
